# Experimental data published in paper PMC3713598, “Renal Protective Role of Xiexin Decoction with Multiple Active Ingredients Involves Inhibition of Inflammation through Downregulation of the Nuclear Factor-κB Pathway in Diabetic Rats” (Evidence-based Complementary and Alternative Medicine : eCAM, 2013).
# Read-outs that look alike come from different tables or passages of the source.
# Experiments:
# [1] = Pharmacokinetics of XXD ingredients in diabetic rat plasma (LC-MS/MS); format: in vivo; details: diabetic rats; for AUC(0-t) / Cmax: male, Sprague-Dawley, rat, po, plasma, mean ± SD n = 8; for AUC(0-t): read-out: AUC0–24 h; for Cmax: read-out: C max
# Protocol: (§1) Male Sprague-Dawley rats (90−100 g) were purchased from the Shanghai Slac Laboratory Animal Co. (Shanghai, China). The rats were housed in an air-conditioned room at 22–24°C under a 12-h dark/light cycle and were given food and water at libitum. All animal experiments were conducted in accordance with the institutional guidelines for the care and use of laboratory animals at Shanghai University of TCM. After 1-week adaptation, animals were divided into a normal control (NC) group fed a standard diet and a high-fat group received a high-fat diet. After 4 weeks, rats on the high-fat diet were treated with streptozotocin (40 mg/kg, intraperitoneal injection). […] In the clinical practice of TCM, XXD is usually prescribed at a daily dose of 46 g of herbal materials (amount to 12 g extract) for diabetic patient. When this human dose was converted into an animal dose (a person of 60 kg, and a conversion factor of 6.25 between human and rat), it was equivalent to the low dose (1.25 g/kg extract) used in this study. NC and DM were treated with vehicle (normal saline) in a matched volume. All the rats were administered the drugs via intragastric gavage (ig) once a day, for 12 weeks.
# The rats treated with XXD for 12 weeks were fasted with free access to water for 12 h before the PK experiments. Blood samples were collected before dosing and at 0, 0.25, 0.5, 1, 2, 4, 6, 12, and 24 h following administration. A validated liquid chromatography-tandem mass spectrometry (LC-MS/MS) method was applied to simultaneously determine the concentration of 11 ingredients (coptisine, jatrorrhizine, berberine, palmatine, baicalin, baicalein, wogonoside, wogonin, rhein, emodin, and aloeemodin) in blood plasma. The plasma concentration-time data were analysed by noncompartmental methods with the WinNonLin software package (Pharsight Corporation, Mountain View, CA, USA) to determine PK parameters.
# diabetic nephropathy = details: cited from earlier work
# diabetic mouse kidney = system: diabetic mouse kidney; design: method as in PMID 22483555, PMID 20447389; details: cited from earlier work
# gut microbes = system: gut microbes; design: method as in PMID 21915347, PMID 22880019; details: by regulation of gut microbes; cited from earlier work
# diabetic rats [2] = assay: Metabolic parameters in diabetic rats (high-fat diet and streptozotocin); format: in vivo, rat; details: for Serum triglyceride: DM 1.1 ± 0.6; for Serum cholesterol: DM 1.5 ± 0.2; for HbA1c: DM 7.2 ± 0.3; for FBG: DM 22.3 ± 2.8; for GAUC (area under the blood glucose response curve): DM 117.1 ± 6.4
# Protocol: (§3) After 1-week adaptation, animals were divided into a normal control (NC) group fed a standard diet and a high-fat group received a high-fat diet. After 4 weeks, rats on the high-fat diet were treated with streptozotocin (40 mg/kg, intraperitoneal injection). […] NC and DM were treated with vehicle (normal saline) in a matched volume. All the rats were administered the drugs via intragastric gavage (ig) once a day, for 12 weeks.
# At 12 weeks, FBG and area under the blood glucose response curve (GAUC) were measured by glucose oxidase method. HbA1c was determined by HPLC (Biorad, Richmond, CA, USA). Serum creatinine, urine creatinine, serum total cholesterol, and triglyceride levels were measured using an automatic biochemistry analyser (Olympus-2000, Tokyo, Japan). Creatinine clearance was calculated.
# diabetic rats [3] = assay: Urinary albumin excretion and renal function in diabetic rats; format: in vivo, rat
# Protocol: as §3
# At 12 weeks, FBG and area under the blood glucose response curve (GAUC) were measured by glucose oxidase method. HbA1c was determined by HPLC (Biorad, Richmond, CA, USA). Serum creatinine, urine creatinine, serum total cholesterol, and triglyceride levels were measured using an automatic biochemistry analyser (Olympus-2000, Tokyo, Japan). Creatinine clearance was calculated. The kidneys were removed, weighed, and parts of them frozen at −80°C until processing for Western blot and RNA extraction, while other parts were removed for histological examination.
# diabetic rats [4] = assay: Renal histopathology (PAS) and electron microscopy in diabetic rats; format: in vivo, rat; details: XXD 1.25 and 2.5 g/kg, losartan 10 mg/kg, metformin 100 mg/kg ig once a day, 12 weeks; compared with DM
# Protocol: Male Sprague-Dawley rats (90-100 g) were purchased from the Shanghai Slac Laboratory Animal Co. (Shanghai, China). The rats were housed in an air-conditioned room at 22-24°C under a 12-h dark/light cycle and were given food and water at libitum. All animal experiments were conducted in accordance with the institutional guidelines for the care and use of laboratory animals at Shanghai University of TCM. After 1-week adaptation, animals were divided into a normal control (NC) group fed a standard diet and a high-fat group received a high-fat diet. After 4 weeks, rats on the high-fat diet were treated with streptozotocin (40 mg/kg, intraperitoneal injection). All diabetic rats with fasting blood glucose (FBG) levels above 16.7 mmol/L were then randomly divided into 5 groups: diabetic model control (DM); […] In the clinical practice of TCM, XXD is usually prescribed at a daily dose of 46 g of herbal materials (amount to 12 g extract) for diabetic patient. […] The ratio of the mesangial matrix area to glomerular area (M/G) was determined by quantitative Image-Pro Plus software (PAX-it; […], Villa Park, IL, USA). Briefly, 20 glomeruli were randomly selected from each section, and positive signals within the selected glomerulus were highlighted, measured, and quantified as percent positive area of the entire glomerulus. […]
# MCP-1 = assay: Renal MCP-1 protein and mRNA expression in diabetic rats; format: in vivo, rat; details: XXD 1.25 and 2.5 g/kg, losartan 10 mg/kg, metformin 100 mg/kg ig once a day, 12 weeks; compared with DM
# Protocol: as §1, with “rats (90-100” for “rats (90−100”, “at 22-24°C” for “at 22–24°C”, “injection). All diabetic rats with fasting blood glucose (FBG) levels above 16.7 mmol/L were then randomly divided into 5 groups: diabetic model control (DM);” for “injection).”, “study. […] The membrane-bound antibody was detected by incubation with chemiluminescent reagent plus (Perkin Elmer Life Sciences, Boston, MA, USA)” for “study. NC”, “and” for “and DM were treated with vehicle (normal saline) in a matched volume. All”, “the signal captured on X-ray film. […]” for “the rats were administered the drugs via intragastric gavage (ig) once a day, for 12 weeks.”
# ICAM-1 = assay: Renal ICAM-1 protein and mRNA expression in diabetic rats; format: in vivo, rat; details: XXD 1.25 and 2.5 g/kg, losartan 10 mg/kg, metformin 100 mg/kg ig once a day, 12 weeks; compared with DM
# Protocol: as §1, with “rats (90-100” for “rats (90−100”, “at 22-24°C” for “at 22–24°C”, “injection). All diabetic rats with fasting blood glucose (FBG) levels above 16.7 mmol/L were then randomly divided into 5 groups: diabetic model control (DM);” for “injection).”, “study. […] The membrane-bound antibody was detected by incubation with chemiluminescent reagent plus (Perkin Elmer Life Sciences, Boston, MA, USA)” for “study. NC”, “and” for “and DM were treated with vehicle (normal saline) in a matched volume. All”, “the signal captured on X-ray film. […]” for “the rats were administered the drugs via intragastric gavage (ig) once a day, for 12 weeks.”
# TNF-α = assay: Renal TNF-α level by ELISA in diabetic rats; format: in vivo, rat; details: XXD 1.25 and 2.5 g/kg, losartan 10 mg/kg, metformin 100 mg/kg ig once a day, 12 weeks; compared with DM
# Protocol: (§2) Male Sprague-Dawley rats (90-100 g) were purchased from the Shanghai Slac Laboratory Animal Co. (Shanghai, China). The rats were housed in an air-conditioned room at 22-24°C under a 12-h dark/light cycle and were given food and water at libitum. All animal experiments were conducted in accordance with the institutional guidelines for the care and use of laboratory animals at Shanghai University of TCM. After 1-week adaptation, animals were divided into a normal control (NC) group fed a standard diet and a high-fat group received a high-fat diet. After 4 weeks, rats on the high-fat diet were treated with streptozotocin (40 mg/kg, intraperitoneal injection). All diabetic rats with fasting blood glucose (FBG) levels above 16.7 mmol/L were then randomly divided into 5 groups: diabetic model control (DM); […] In the clinical practice of TCM, XXD is usually prescribed at a daily dose of 46 g of herbal materials (amount to 12 g extract) for diabetic patient. When this human dose was converted into an animal dose (a person of 60 kg, and a conversion factor of 6.25 between human and rat), it was equivalent to the low dose (1.25 g/kg extract) used in this study. […] Tumor necrosis factor α (TNF-α), IL-6 and AGEs protein levels in renal tissue were measured using commercial ELISA kits (R&D, Minneapolis, MN, USA) according to the manufacturer's instructions.
# IL-6 = assay: Renal IL-6 level by ELISA in diabetic rats; format: in vivo, rat; details: XXD 1.25 and 2.5 g/kg, losartan 10 mg/kg ig once a day, 12 weeks; compared with DM
# Protocol: as §2
# TGF-β1 = assay: Renal TGF-β1 protein and mRNA expression in diabetic rats; format: in vivo, rat; details: XXD 1.25 and 2.5 g/kg, losartan 10 mg/kg ig once a day, 12 weeks; compared with DM
# Protocol: as §2, with “The membrane-bound antibody was detected by incubation with chemiluminescent reagent plus (Perkin Elmer Life Sciences, Boston, MA, USA)” for “Tumor necrosis factor α (TNF-α), IL-6”, “and” for “and AGEs protein levels in renal tissue were measured using commercial ELISA kits (R&D, Minneapolis, MN, USA) according to”, “signal captured on X-ray film. […]” for “manufacturer's instructions.”
# NF-κB signalling pathway = assay: Renal NF-κB signalling pathway (western blot, real-time PCR) in diabetic rats; format: in vivo, rat; details: XXD 1.25 and 2.5 g/kg, losartan 10 mg/kg ig once a day, 12 weeks; compared with DM
# Protocol: as §2, with “The membrane-bound antibody was detected by incubation with chemiluminescent reagent plus (Perkin Elmer Life Sciences, Boston, MA, USA)” for “Tumor necrosis factor α (TNF-α), IL-6”, “and” for “and AGEs protein levels in renal tissue were measured using commercial ELISA kits (R&D, Minneapolis, MN, USA) according to”, “signal captured on X-ray film. […]” for “manufacturer's instructions.”
# AGEs = assay: Renal AGEs level by ELISA in diabetic rats; format: in vivo, rat; details: XXD 1.25 and 2.5 g/kg, metformin 100 mg/kg ig once a day, 12 weeks; compared with DM
# Protocol: as §1
# Tumor necrosis factor α (TNF-α), IL-6 and AGEs protein levels in renal tissue were measured using commercial ELISA kits (R&D, Minneapolis, MN, USA) according to the manufacturer's instructions.
# RAGE = assay: Renal RAGE expression by western blot in diabetic rats; format: in vivo, rat; details: XXD 1.25 and 2.5 g/kg, metformin 100 mg/kg ig once a day, 12 weeks; compared with DM
# Protocol: as §1, with “NC and DM were treated with vehicle (normal saline) in a matched volume. All the rats were administered the drugs via intragastric gavage (ig) once a day, for 12 weeks.” left out
# Kidney tissue was homogenized in radioimmunoprecipitation assay buffer containing 0.5% Nonidet P-40, 0.5% sodium deoxycholate, 0.1% SDS, 10 mmol/L EDTA, and protease inhibitors. […] The membrane-bound antibody was detected by incubation with chemiluminescent reagent plus (Perkin Elmer Life Sciences, Boston, MA, USA) and the signal captured on X-ray film. […]
# [5] = XXD 1.25 g/kg intragastric gavage for 12 weeks
# [6] = XXD 2.5 g/kg intragastric gavage for 12 weeks
# [7] = losartan 10 mg/kg ig once a day 12 weeks
# [8] = metformin 100 mg/kg ig once a day 12 weeks
smiles,measurement,setting,value
"COc1ccc2cc3[n+](cc2c1OC)CCc1cc2c(cc1-3)OCO2 [Berberine, berberine]",shape of plasma concentration-time curve,[1]; after ig administration of XXD for 12 weeks,double peaks
same,AUC(0-t),[1]; [5],757 ± 389 ng·h/mL
same,Cmax,[1]; [5],51 ± 20 ng/mL
same,AUC(0-t),[1]; [6],1730 ± 1040 ng·h/mL
same,Cmax,[1]; [6],118 ± 78 ng/mL
same,anti-DN effects,diabetic nephropathy,exhibited anti-DN effects
same,"TGF-β1, ICAM-1, and VCAM-1 protein expression",diabetic mouse kidney,downregulating
same,renal AGE generation,diabetic mouse kidney,inhibiting
same,IKBα protein level,diabetic mouse kidney; diabetic mouse kidney,increased
same,NF-κBp65 protein level,diabetic mouse kidney; diabetic mouse kidney,decreased
same,blood lipid levels,gut microbes,reduced
CCCCc1nc(Cl)c(CO)n1Cc1ccc(-c2ccccc2-c2nn[nH]n2)cc1 [losartan],Serum triglyceride,diabetic rats [2]; [7],0.7 ± 0.3 mmol/L
same,Serum cholesterol,diabetic rats [2]; [7],1.3 ± 0.2 mmol/L
same,HbA1c,diabetic rats [2]; [7],6.9 ± 0.2%
same,FBG,diabetic rats [2]; [7],21.6 ± 4.4 mmol/L
same,GAUC (area under the blood glucose response curve),diabetic rats [2]; [7],111.8 ± 11.1 mmol·h/L
same,urinary albumin excretion (UAE),"diabetic rats [3]; XXD 1.25 and 2.5 g/kg, losartan 10 mg/kg, metformin 100 mg/kg ig once a day, 12 weeks, compared with DM",significantly reduced
same,Kidney weight/body weight,"diabetic rats [3]; losartan 10 mg/kg ig once a day 12 weeks, DM 1.18 ± 0.06",1.00 ± 0.05 %
same,"renal pathological changes (glomerular hypertrophy, mesangial matrix expansion, M/G, basement membrane thickening)",diabetic rats [4],ameliorated
same,renal protein and mRNA MCP-1 expression,MCP-1,significantly downregulated
same,renal protein and mRNA ICAM-1 expression,ICAM-1,significantly downregulated
same,renal TNF-α level,TNF-α,significantly downregulated
same,renal IL-6 level,IL-6,significantly downregulated
same,renal TGF-β1 protein and mRNA expression,TGF-β1,significantly downregulated
same,"renal IKKα, phospho-IκBα, phospho-NF-κBp65, NF-κBp65 and IκBα protein expression changes",NF-κB signalling pathway,significantly ameliorated
same,renal NF-κBp65 mRNA expression,NF-κB signalling pathway,downregulated
CN(C)C(=N)N=C(N)N [metformin],Serum triglyceride,diabetic rats [2]; [8],1.0 ± 0.3 mmol/L
same,Serum cholesterol,diabetic rats [2]; [8],1.2 ± 0.4 mmol/L
same,HbA1c,diabetic rats [2]; [8],6.6 ± 0.5 %
same,FBG,diabetic rats [2]; [8],9.4 ± 2.5 mmol/L
same,GAUC (area under the blood glucose response curve),diabetic rats [2]; [8],70.9 ± 9.5 mmol·h/L
same,"renal pathological changes (glomerular hypertrophy, mesangial matrix expansion, M/G, basement membrane thickening)",diabetic rats [4],ameliorated
same,total renal AGEs content,AGEs,significantly reduced
same,renal RAGE expression,RAGE,downregulated
same,renal protein and mRNA MCP-1 expression,MCP-1,significant reduction
same,renal protein and mRNA ICAM-1 expression,ICAM-1,significant reduction
same,renal TNF-α level,TNF-α,significant reduction
